Source: patent publication US10918713B2, “Epitopes from allergen proteins and methods and uses for immune response modulation” (LA JOLLA INSTITUTE FOR ALLERGY AND IMMUNOLOGY, priority 2012, dated 2021)
Values joined by “and” are separate entries in the source; they are usually repeats but may differ in a detail not shown here. Equal entries are not always repeated.

Tests used:
Assay type in all cases: cell-based, human
[1] = tested on: PBMC from allergic donors; test: Dual ELISPOT, total IL-5 and IFN-γ response (SFC); settings: sum of IFNg and IL-5
Procedure: (§1) Spots were counted by computer-assisted image analysis (Zeiss, KS-ELISPOT reader, Munich, Germany).
(§2) Each assay was performed in triplicate. The level of statistical significance was determined with a Student's t-test using the mean of triplicate values of the response against relevant pools or individual peptides versus the response against the DMSO control.

[2] = tested on: PBMC from allergic donors; test: IL-5 ELISPOT with extract-stimulated short-term lines; settings: positive donor/peptide response
Procedure: as §1, §2

[3] = tested on: PBMC from allergic donors; test: IFN-γ ELISPOT with extract-stimulated short-term lines; settings: positive donor/peptide response
Procedure: as §1, §2

SMILES | Response (SFC/10^6) Total ([1]; each table line is one donor) | Response (SFC/10^6) IL-5 ([2]; each table line is one donor) | Response (SFC/10^6) IFNg ([3]; each table line is one donor) | Response (SFC/10^6) Total ([1]; one donor per table line) | Response (SFC/10^6) IL-5 ([2]; one donor per table line) | Response (SFC/10^6) IFNg ([3]; one donor per table line)
CC(C)[C@H](NC(=O)[C@H](Cc1ccccc1)NC(=O)[C@H](CO)NC(=O)[C@H](CC(=O)O)NC(=O)[C@H](Cc1ccccc1)NC(=O)[C@H](CCCCN)NC(=O)[C@H](C)NC(=O)[C@H](CCC(=O)O)NC(=O)[C@@H]1CCCN1C(=O)[C@@H](NC(=O)[C@H](C)N)[C@@H](C)O)C(=O)N[C@@H](C)C(=O)N[C@@H](C)C(=O)N[C@@H](Cc1ccccc1)C(=O)N[C@H](C(=O)O)[C@@H](C)O [3324.1570] | 238 SFC/10^6 and 80 SFC/10^6 and 117 SFC/10^6 | 238 SFC/10^6 | 80 SFC/10^6 and 117 SFC/10^6 | – | – | –
CC[C@H](C)[C@H](NC(=O)[C@@H](N)CC(=O)O)C(=O)N[C@@H](CC(N)=O)C(=O)N[C@H](C(=O)NCC(=O)N[C@@H](Cc1ccccc1)C(=O)N[C@@H](CCCCN)C(=O)N[C@@H](C)C(=O)N[C@@H](C)C(=O)N[C@H](C(=O)N[C@@H](C)C(=O)N[C@@H](C)C(=O)N[C@@H](C)C(=O)N[C@@H](C)C(=O)NCC(=O)O)C(C)C)C(C)C [3324.1571] | 397 SFC/10^6 and 47 SFC/10^6 and 1057 SFC/10^6 and 1183 SFC/10^6 | 397 SFC/10^6 and 1057 SFC/10^6 | 47 SFC/10^6 and 1183 SFC/10^6 | – | – | –
CC(C)[C@H](NC(=O)[C@H](C)NC(=O)[C@H](C)NC(=O)[C@H](CCCCN)NC(=O)[C@@H](N)Cc1ccccc1)C(=O)N[C@@H](C)C(=O)N[C@@H](C)C(=O)N[C@@H](C)C(=O)N[C@@H](C)C(=O)NCC(=O)N[C@@H](C)C(=O)N1CCC[C@H]1C(=O)N1CCC[C@H]1C(=O)N[C@@H](C)C(=O)N[C@@H](CC(=O)O)C(=O)O [3324.1575] | 138 SFC/10^6 and 327 SFC/10^6 and 230 SFC/10^6 | 138 SFC/10^6 and 327 SFC/10^6 | 230 SFC/10^6 | – | – | –
CC[C@H](C)[C@H](NC(=O)[C@H](CC(=O)O)NC(=O)[C@H](CCC(=O)O)NC(=O)[C@H](CCSC)NC(=O)[C@H](CC(C)C)NC(=O)[C@H](CCCCN)NC(=O)[C@@H](N)CCC(N)=O)C(=O)N[C@@H](CC(N)=O)C(=O)N[C@H](C(=O)NCC(=O)N[C@@H](Cc1ccccc1)C(=O)N[C@@H](CCCCN)C(=O)N[C@@H](C)C(=O)N[C@@H](C)C(=O)N[C@H](C(=O)O)C(C)C)C(C)C [3324.1580] | 317 SFC/10^6 and 390 SFC/10^6 | 107 SFC/10^6 | 317 SFC/10^6 and 283 SFC/10^6 | – | – | –
CC(C)C[C@H](NC(=O)[C@H](Cc1ccc(O)cc1)NC(=O)[C@H](C)NC(=O)[C@H](CCC(=O)O)NC(=O)[C@@H](NC(=O)[C@H](C)NC(=O)[C@H](CCCCN)NC(=O)[C@H](Cc1ccccc1)NC(=O)[C@@H](NC(=O)[C@H](CCC(=O)O)NC(=O)[C@H](CO)NC(=O)[C@H](C)N)C(C)C)C(C)C)C(=O)N[C@H](C(=O)N[C@@H](C)C(=O)N[C@@H](Cc1c[nH]cn1)C(=O)O)C(C)C [3324.1584] | – | – | – | 207 SFC/10^6 and 1033 SFC/10^6 and 97 SFC/10^6 | 207 SFC/10^6 and 890 SFC/10^6 and 97 SFC/10^6 | 143 SFC/10^6
CC(C)C[C@H](NC(=O)[C@H](CC(N)=O)NC(=O)[C@H](CC(=O)O)NC(=O)[C@H](CO)NC(=O)[C@H](CC(=O)O)NC(=O)[C@H](CC(C)C)NC(=O)[C@@H](NC(=O)[C@H](Cc1ccccc1)NC(=O)[C@H](C)NC(=O)[C@H](CCCCN)NC(=O)[C@H](Cc1ccccc1)NC(=O)[C@H](CC(C)C)NC(=O)[C@H](CCCNC(=N)N)NC(=O)[C@H](C)NC(=O)[C@@H]1CCCN1)C(C)C)C(=O)O [3324.1585] | – | – | – | 170 SFC/10^6 and 2767 SFC/10^6 and 1790 SFC/10^6 and 583 SFC/10^6 and 700 SFC/10^6 and 70 SFC/10^6 | 170 SFC/10^6 and 890 SFC/10^6 and 1790 SFC/10^6 and 190 SFC/10^6 and 520 SFC/10^6 and 70 SFC/10^6 | 1877 SFC/10^6 and 393 SFC/10^6 and 180 SFC/10^6
CC[C@H](C)[C@H](NC(=O)[C@@H](NC(=O)[C@H](CO)NC(=O)[C@H](C)N)C(C)C)C(=O)N1CCC[C@H]1C(=O)N1CCC[C@H]1C(=O)N[C@@H](C)C(=O)N[C@@H](CCCNC(=N)N)C(=O)N[C@@H](CC(C)C)C(=O)N[C@@H](Cc1ccccc1)C(=O)N[C@@H](CCCCN)C(=O)N[C@@H](C)C(=O)N[C@@H](Cc1ccccc1)C(=O)N[C@H](C(=O)N[C@@H](CC(C)C)C(=O)O)C(C)C [3324.1587] | – | – | – | 273 SFC/10^6 and 330 SFC/10^6 and 97 SFC/10^6 and 100 SFC/10^6 | 203 SFC/10^6 and 97 SFC/10^6 and 100 SFC/10^6 | 273 SFC/10^6 and 127 SFC/10^6
CC[C@H](C)[C@H](NC(=O)[C@H](CC(C)C)NC(=O)[C@H](CC(N)=O)NC(=O)[C@H](CC(=O)O)NC(=O)[C@H](CO)NC(=O)[C@H](CC(=O)O)NC(=O)[C@H](CC(C)C)NC(=O)[C@@H](NC(=O)[C@H](Cc1ccccc1)NC(=O)[C@H](C)NC(=O)[C@@H](N)CCCCN)C(C)C)C(=O)N1CCC[C@H]1C(=O)N[C@@H](CCCCN)C(=O)N[C@H](C(=O)N[C@H](C(=O)O)C(C)C)C(C)C [3324.1588] | – | – | – | 123 SFC/10^6 and 1147 SFC/10^6 and 57 SFC/10^6 | 123 SFC/10^6 and 947 SFC/10^6 and 57 SFC/10^6 | 200 SFC/10^6
CC[C@H](C)[C@H](NC(=O)[C@H](Cc1ccc(O)cc1)NC(=O)[C@H](CCC(=O)O)NC(=O)[C@H](CC(C)C)NC(=O)[C@H](CO)NC(=O)[C@@H](NC(=O)[C@@H](N)Cc1ccccc1)[C@@H](C)O)C(=O)N[C@@H](CCC(=O)O)C(=O)N[C@@H](C)C(=O)N[C@@H](C)C(=O)N[C@@H](CCCCN)C(=O)N[C@@H](Cc1c[nH]c2ccccc12)C(=O)N[C@@H](CC(C)C)C(=O)N[C@@H](CC(C)C)C(=O)N1CCC[C@H]1C(=O)O [3324.1589] | 1743 SFC/10^6 and 203 SFC/10^6 | 1433 SFC/10^6 and 203 SFC/10^6 | 310 SFC/10^6 | – | – | –
CC[C@H](C)[C@H](NC(=O)[C@H](Cc1ccccc1)NC(=O)[C@H](CC(=O)O)NC(=O)[C@@H](NC(=O)[C@@H](NC(=O)CNC(=O)[C@@H](N)CCC(=O)O)[C@@H](C)O)C(C)C)C(=O)N[C@@H](Cc1ccccc1)C(=O)NCC(=O)N[C@@H](CCC(=O)O)C(=O)N[C@@H](C)C(=O)N[C@@H](CCCNC(=N)N)C(=O)N[C@@H](CO)C(=O)N[C@@H](CC(C)C)C(=O)N[C@@H](Cc1ccc(O)cc1)C(=O)O [3324.1590] | 1697 SFC/10^6 and 363 SFC/10^6 | 1300 SFC/10^6 and 363 SFC/10^6 | 397 SFC/10^6 | – | – | –
CC[C@H](C)[C@H](N)C(=O)N[C@@H](C)C(=O)N[C@@H](Cc1ccccc1)C(=O)N[C@@H](Cc1ccccc1)C(=O)N[C@@H](CCCNC(=N)N)C(=O)N[C@@H](CCCCN)C(=O)N[C@@H](CCC(=O)O)C(=O)N1CCC[C@H]1C(=O)N[C@@H](CC(C)C)C(=O)N[C@@H](CCCCN)C(=O)N[C@@H](CCC(=O)O)C(=O)N[C@@H](CS)C(=O)NCC(=O)NCC(=O)N[C@H](C(=O)O)[C@@H](C)CC [3337.0029] | – | – | – | 257 SFC/10^6 | 180 SFC/10^6 | 77 SFC/10^6
